Data published in patent US8247615B2, “Process of converting esterified xanthophylls from Capsicum to non-esterified xanthophylls in high yields and purities” (Kalamazoo Holdings, Inc., priority 2010, dated 2012).
In brackets after ≈: the same amount, converted by molar mass. Entries after “also recorded” stand apart in the source; their conditions may differ.

Columns and labels:
Type in all cases: physicochemical
[1] = Stability of zeaxanthin in strongly basic (pH~14) aqueous methanolic potassium hydroxide at room temperature for 15 days
Experimental: A reaction was carried out using the same reactants at the same proportions under the same conditions as reaction 19 in the table in Example 1. The procedure was identical for the first 24 hrs as described for reaction 19, but after refluxing for 24 hours, the mixture was allowed to settle for 1 hour at which time the upper hexane layer was decanted away. The remaining lower phase was washed twice by partitioning with water (30 mL for each wash). In each case the lower aqueous phase was discarded and after the second water wash, methanol (75 mL) was added to the remaining upper phase. The mixture was then distilled to remove the remaining hexanes and then refluxed for five hours. The mixture was then allowed to cool and was centrifuged and decanted to afford a supernatant and a crude precipitate. […] The purity was 17.4%. In a separate experiment, the mixture was allowed to cool after distilling away hexane (i.e. the five hour reflux described above was not carried out) and placed in a separating funnel for 15 days at which time the supernatant was removed by decanting to afford a crude precipitate. […] The supernatant and both wash solutions were analyzed for zeaxanthin content and >99% of the input zeaxanthin was accounted for, even after sitting in caustic solution for two weeks!

[2] = Solubility of zeaxanthin in solvents (saturated solution, residue weighed); conditions: organic solvent or mixture, thermodynamic from solid
Source text: In a procedure identical to that described in Example 6 up until almost the final methanol desolventization step, rather than desolventizing the zeaxanthin methanol slurry, it was transferred along with 1.5 parts water (by volume) to a continuous extractor containing 1 part dichloromethane. The slurry was extracted with dichloromethane for four hours at which time the dichloromethane solution in the receiver was decanted away from the crystalline zeaxanthin that had formed. The crystals thereby obtained were 95.1% pure all-trans-zeaxanthin. The yield obtained was only 12.6%, but this experiment was only intended to produce purified zeaxanthin crystals. […] These crystals were homogenized in a mortar and pestle and added to separate vials containing various solvents until a saturated solution was obtained. In order to measure the solubility of zeaxanthin in different solvents (shown in Table 7 below), a 5.0 ml portion of the saturated supernatant was filtered, desolventized, and the residues weighed.

[3] = Stability of cis and trans isomers of zeaxanthin to the analytical sample preparation conditions; conditions: analytical saponification in refrigerator, between 2 and 119 hours
Experimental: […]
Using the sample preparation conditions above, duplicate samples were prepared from the same oleoresin and each were split into seven separate vials and then stored in the refrigerator. A vial from each of the duplicate samples was removed at various times and analyzed by HPLC. […] We therefore conclude that our sample preparation and analysis conditions are not changing the amounts of the two isomers and that the amounts measured are the amounts in the samples prior to sample preparation and analysis.

[4] = Stability of zeaxanthin on spray drying of the methanol slurry; conditions: spray dryer, inlet 120-160° C., outlet 60.5-87.2° C., nitrogen drying gas
Experimental: In an experiment identical to the procedure described in Example 6, the zeaxanthin/methanol slurry was desolventized using a spray dryer. […] Inlet temperatures ranged from 120° C. to 160° C., outlet temp was 60.5° C. to 87.2° C., and rotary atomizer was set at 5.5 bar. Nitrogen was used as the drying gas.

[5] = Stability of zeaxanthin to saponification / reflux in caustic aqueous methanolic potassium hydroxide
Experimental: In a procedure similar to that described in Example 2 after distilling away the hexane, the mixture was refluxed for a total of 40 hours and the content of zeaxanthin isomers was monitored by HPLC as a function of time. After refluxing for 40 hours the mixture was allowed to cool, then centrifuged to afford a supernatant and a crude precipitate. The crude precipitate was washed with methanol (4× by weight of crude precipitate) centrifuged and decanted to afford a wash solution and a refined precipitate. After desolventization, the powder was 59.0% pure zeaxanthin corresponding to a yield of 71%. The supernatant and the wash solution were both analyzed for zeaxanthin content and >99% of input zeaxanthin was accounted for, even after refluxing in caustic solution for 40 hours!

CC1=C(/C=C/C(C)=C/C=C/C(C)=C/C=C/C=C(C)/C=C/C=C(C)/C=C/C2=C(C)CC(O)CC2(C)C)C(C)(C)CC(O)C1 (stereo not shown) [Zeaxanthin, zeaxanthin]
input zeaxanthin accounted for ([1]; after sitting in caustic solution for two weeks (15 days), precipitate, supernatant and wash solutions): > 99%
degradation / loss of zeaxanthin ([1]; strongly basic solution (pH~14), room temperature, 15 days): no degradation of zeaxanthin was observed; also recorded: nor was any significant loss of zeaxanthin observed; also recorded: no loss in zeaxanthin content
solubility ([2]; solvent Acetone): 1630 µg/mL (≈ 2870 µM)
solubility ([2]; solvent DCM (dichloromethane)): 2960 µg/mL (≈ 5200 µM)
solubility ([2]; solvent EtOAc (ethyl acetate)): 1070 µg/mL (≈ 1880 µM)
solubility ([2]; solvent EtOH (ethanol)): 40 µg/mL (≈ 70.3 µM)
solubility ([2]; solvent Hexane): 68 µg/mL (≈ 120 µM)
solubility ([2]; solvent IPA (isopropyl alcohol)): 81 µg/mL (≈ 142 µM)
solubility ([2]; solvent Methanol): 82 µg/mL (≈ 144 µM)
solubility ([2]; solvent MtBE (methyl tert-butyl ether)): 726 µg/mL (≈ 1280 µM)
solubility ([2]; solvent THF (tetrahydrofuran)): > 20400 µg/mL
change in amounts of cis and trans isomers [3]: no change was observed
degradation of zeaxanthin [4]: No degradation of zeaxanthin was observed
input zeaxanthin accounted for ([5]; after refluxing in caustic solution for 40 hours, precipitate, supernatant and wash solution): > 99%
stability to degradation ([5]; reflux in very basic aqueous methanolic solution): stable to degradation
loss of zeaxanthin ([5]; saponification by the method of the present invention, Capsicum starting material): < 1%
